This note sets out measurements from patent publication US9611281B2, “BODIPY derivatives and methods of synthesis and use thereof” (The Board of Regents of the University of Oklahoma, priority 2013, dated 2017).

A value given as a limit tells only on which side of the number the result lay.

Series [1] in a line: Singlet oxygen generation, indirect method of DPBF photooxidation. To be noted: DPBF photooxidation monitored at 410 nm. The protocol:
(§1) Singlet oxygen generation and photostability: A singlet oxygen generation experiment on compound 53 using the indirect method of DPBF photooxidation was performed. There were strong similarities of the behavior of 53 towards DPBF with SBDPiR715. […] The photooxidation of DPBF was monitored by UV-vis spectrophotometer at 410 nm. […] Additionally, less than 30% of 53 photobleached under the harsh light illumination condition over a period of an hour, which is a strong evidence for photostability (FIG. 21).

In series [2] the test system is nude mice. The experiment in a line: In vivo optical imaging with Compound 53. On the set-up: species or system mouse. To be noted: for in vivo fluorescence image: 2.5 μmol/kg i.p. The protocol: Optical imaging was performed with an IVIS Spectrum small-animal in vivo imaging system (Caliper LS). The Living Image Software v3.0 (Caliper LS) was used to analyze images and measurements of fluorescent signals. Excitation and emission wavelengths of 720 nm and 760 nm, respectively, were used to acquire in vivo fluorescent images of Compound 53 (M.W=[…]). All images were attained using a 1-s exposure time and an f/stop of 1, with a sampling of multiple angles with animal under Isoflurane anaesthesia. Animals were injected with 2.5 μmol/kg (2 mg/kg) of 53 via i.p. administration.

Series [3] can be described thus: Photostability (photobleaching under light illumination). The series is classed as physicochemical. The protocol: as §1
Series [4] in a line: Real time whole body imaging of SBDPiR690 clearance and biodistribution. The arrangement: species or system mice. To be noted: mouse, in vivo. The method, then: The inherent fluorescent properties of SBDPiR690 enabled its use in real time whole body imaging to evaluate the clearance and biodistribution of the drug in organs, making it an applicable theranostic agent. The drug clears from organs and tissue by 24 hours, reducing the occurrence of skin photo-toxicity, which is a major problem among photosensitizers. […] These findings show the effectiveness of SBDPiR690 as a photosensitizer for use in PDT in clinical setting.

A short description of series [5]: Optical properties (absorption, emission, extinction coefficient) of BDP635 and derivative SBDPiRs. The series is classed as physicochemical.
The test system of series [6] is colon-26 tumor model. Briefly: In vivo PDT response following SBDPiR690 treatment. The arrangement: species or system Balb/c mice. The method, then:
25 animals were divided into 4 groups: control, dark control (SBDPiR690 only), light control (light only), and SBDPiR690-with light exposure (PDT). SBDPiR690 was intravenously injected into mice with colon-26 tumor model, followed by light illumination after 15 minutes postinjection using a light dose of 100 mW/cm^2 (FIGS. 28-29). Mice body weight and tumor response at high light doses (˜500 J cm^−2) were used for initial toxicity profiles.

The subject of series [7] is colon cancer tumors. Briefly: H&E histology of tumors after SBDPiR690 PDT. The series is classed as in vivo, Balb/c mice. Conditions: 1 day post treatment. The source says:
To access the effect of SBDPiR690 on the tumor regions, tumor samples were collected from SBDPiR690 treated and control mice 1 day post treatment. The samples were fixed, embedded, sectioned, and stained using hematoxylin and eosin.

A short description of series [8]: Drug biodistribution of SBDPiR715. To be noted: 5 μmol/kg i.p., 24 hours postinjection. The series is classed as in vivo, Balb/c mice. The method, then: Mice were injected via i.p. with SBDPiR715 (5 μmol/kg/3.7 mg/kg). After 24 hours postinjection, the mice (n=3) were euthanized by CO2 inhalation. Tissues were excised from major organs and tumor. Collected tissues were rinsed with PBS and blotted dry. One hundred milligram of excised tissue was homogenized with CHCl3 (1 ml). The homogenates were centrifuged at 5160 g for 20 minutes, and the supernatant was used for fluorescence measurement (excitation at 710 nm and emission at 754 nm). The amount of compound in each sample was evaluated relative to the standard curve and expressed in “mg/g of tissue” unit.

Series [9] deals with colon-26 tumors. The experiment in a line: In vivo SBDPiR715-mediated PDT. The method, then:
PS: To obtain an injection solution of SBDPiR715, the emulsifier Tween 80 was used. Tween 80 is a nonionic surfactant, frequently used in vivo as a solubilizing agent for highly lipophilic therapeutics. The formulation procedure required dissolving the PS in a minimal amount of Tween 80 (100 μl). The paste was allowed to stand overnight. 5% Dextrose in phosphate-buffered saline (PBS) solution was added, and the solution was sonicated for 1 hour. The resulting green solution was filtered through a 0.2 μm membrane filter. To ensure the accuracy of the concentration, which might vary due to partial solubility of the PS, the exact concentration was confirmed by UV-visible spectral analysis of the solutions prior to dosing.
Cells and Animal Models: Colon-26 mouse carcinoma cells were obtained from the American Type Culture Collection (ATCC) and cultured in minimum essential medium supplemented with 10% (v/v) fetal calf serum (FCS), 50 U ml^−1 penicillin, 50 μg ml^−1 streptomycin, and 1% (v/v) L-glutamine. The cells were maintained in 5% CO2 (v/v) and 21% O2 (v/v) at 37° C. All animal experiments were approved by IACUC of the University of Oklahoma Health Sciences Center. Female BALB/c mice were received from Charles River at 6-8 weeks old. Balb/c mice were shaved on the upper back and depilated with Nair (Carter-Wallace Inc., New York, N.Y., USA). Mice were anesthetized with an i.p. injection of ketamine/xylazine cocktail (90 mg kg^−1 ketamine and 10 mg kg xylazine). One million colon-26 cells were injected subcutaneously in one dorsal neck area suspended in […] PBS. Tumors grew predictably in all the mice and reached a size of 4- to 6-mm diameter in 5-7 days, or 8-11 mm in 14-16 days after injection, at which time they were used for PDT.
SBDPiR715 in 1% Tween 80-5% Dextrose solvent was injected i.p. at a dose of 3 μmol/kg (2.2 mg/kg) and 5 μmol/kg (3.7 mg/kg) in 0.2 ml solution. Tumors were irradiated 6 hours, 24 hours, or 32 hours after the injection using a Lumacare LC-122M with a fiber-optic light delivery system (Lumacare, Newport Beach, Calif., USA) emitting light at 700 nm (±40 nm). […] No evident temperature increase was detected at the site of irradiation. Mice were anesthetized as described above, and the tumor-bearing limb was positioned under the spot. Total dose of 200-300 mW/cm^2 was delivered for 30 minutes (360-540 J cm^−2). Mice bearing colon-26 tumors were also irradiated without having received injection of SBDPiR715. Another group of animals was treated with SBDPiR715 i.p. without irradiation. After irradiation, mice were allowed to recover in an animal cotton blanket until they resumed normal activity. A positive tumor response was ascribed to tumors that appeared flat blackened or reddened scarp and necrotic tissue within a few days after PDT. Animals were considered cured after complete tumor regression and the absence of a palpable tumor.

As to `O=C(O)COc1ccc(-c2sc3c(c2Br)=[N+]2C(=C(C(F)(F)F)c4cc5sc(-c6ccc(OCC(=O)O)cc6)c(Br)c5n4[B-]2(F)F)C=3)cc1` [Compound 53, 3,7-Dibromo-2,8-di(4-Carboxymethoxy-phenyl)-11-trifluoromethyl-dithieno[2,3-b]-[3,2-g]-5,5-difluoro-5-bora-3a,4a-diaza-s-indacene], the singlet oxygen generation entry in series [1] is given as “potent singlet oxygen generator”. In addition, the “in vivo fluorescence signal” value in series [2] (2.5 μmol/kg (2 mg/kg) i.p., ex 720 nm / em 760 nm) was “Bright fluorescence signals were detected”. For the same compound, the “in vivo fluorescence image” value in [2] (5 and 10 minutes) was “two bright areas were observed in the mid-body”; in series [2] (3 hours and 6 hours) it was “most skin showed bright emission”; in [2] (12 hours) it was “the intensity of skin was lower than the 3 hour and 6 hour images”. Further, in series [3], the “photostability compared with m-THPC” value was “relatively better than the clinically approved m-THPC (Foscan)”. For the same compound, the fraction photobleached result in [3] (harsh light illumination over a period of an hour) is “less than 30%”.
For the compound `F[B-]1(F)n2c(cc3sc(-c4ccccc4)cc32)C(C(F)(F)F)=C2C=c3sc(-c4ccccc4)cc3=[N+]21` [SBDPiR690, 2,8-Di(phenyl)-1-trifluoromethyl-dithieno[2,3-b]-[3,2-g]-5,5-difluoro-5-bora-3a,4a-diaza-s-indacene], in [4], the “clearance from organs and tissue” value is ≤ 24 h. Further, in series [5], the ε is on record as 120 000 M^−1 cm^−1, the λabs came to 688 nm and the λflu stood at 700 nm. Moreover, the palpable tumor result in series [6] (60 days post-treatment) is recorded as “no palpable tumor observed”. Moreover, in series [6] (SBDPiR690-induced PDT), the tumor volume result is recorded as “elimination of tumors”. For the same compound, the tumor necrosis result in series [6] (after 24-72 h, light fluence 150 J cm^−2) is “Mass necrosis localized at the tumor region”. Moreover, the survival in series [6] (after 60 days, SBDPiR690-induced PDT) was found to be 100%. For the same compound, the oedema and inflammation result in series [6] (after PDT) was “oedema and inflammation was observable after 24 hours, but healed after a few days”. Further, in series [6] (high light doses (~500 J cm^−2)), the body weight entry is recorded as “fairly constant”. In addition, in [7], the “tissue morphology (H&E)” value was “necrosis associated with the treated mice”.
With `COc1ccc(-c2sc3c(c2Br)=[N+]2C(=C(C(F)(F)F)c4cc5sc(-c6ccc(OC)cc6)c(Br)c5n4[B-]2(F)F)C=3)cc1` [SBDPiR715], the organ biodistribution entry in series [8] was “a higher accumulation of SBDPiR715 was observed in the liver and spleen”. In addition, the singlet oxygen generation entry in series [1] is given as “effective singlet oxygen generation”. Moreover, the extent of necrosis result in series [9] (6 and 24 hour drug-light interval) was “necrosis spread to neighboring skin regions”; in series [9] (32 hour drug-light interval) it was “confinement of necrosis to the tumor region”. Besides, the tumor healing time in [9] (after PDT, with remodeling of damaged tissue) was ~30 days. The “tumor response to PDT” value in [9] (all treatment groups (6, 24, 32 h drug-light interval), monitored for 90 days) was “complete tumor ablation”. Besides, the “weight loss / visual signs of toxicity” value in [9] (treatment dose 5 μmol/kg (3.7 mg/kg) i.p.) is on record as “No weight loss or other visual signs of toxicity”. Moreover, the “onset of tumor necrosis after PDT” value in series [9] (treatment groups) was “mass necrosis and eschar within a day”.
